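All cell lines were grown in 96-well plates and treated with compound for 48 hours. GI50: concentration for 50% inhibition of growth.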 Activity calls are given as the source filed them. Rule as the data show it: active = GI50 up to about 1.1 µM and inactive = higher.
Tests used:
Assay in all cases: NCI-60 cell line screen, 48 h
U-251 = tested on: U-251
HCC 2998 = tested on: HCC 2998
DLD-1 = tested on: DLD-1
786-0 = tested on: 786-0
IGROV-1 = tested on: IGROV-1
SN12C = tested on: SN12C
SF-295 = tested on: SF-295
NCI-H23 = tested on: NCI-H23
SNB-78 = tested on: SNB-78
M14 = tested on: M14
SF-539 = tested on: SF-539
OVCAR-4 = tested on: OVCAR-4
SF-268 = tested on: SF-268
CAKI-1 = tested on: CAKI-1
DMS-114 = tested on: DMS-114
HOP-62 = tested on: HOP-62
NCI-H460 = tested on: NCI-H460
UACC-62 = tested on: UACC-62
SR = tested on: SR
OVCAR-3 = tested on: OVCAR-3
HCT-15 = tested on: HCT-15
LXFL 529 = tested on: LXFL 529
SK-MEL-28 = tested on: SK-MEL-28
HCT-116 = tested on: HCT-116
RXF 393 = tested on: RXF 393
M19-MEL = tested on: M19-MEL
HOP-92 = tested on: HOP-92
RXF 631 = tested on: RXF 631
HL-60 = tested on: HL-60
NCI-H522 = tested on: NCI-H522
SW-620 = tested on: SW-620
A549 = tested on: A549
XF498 = tested on: XF498
ACHN = tested on: ACHN
SNB-19 = tested on: SNB-19
OVCAR-8 = tested on: OVCAR-8
CCRF-CEM = tested on: CCRF-CEM
MOLT-4 = tested on: MOLT-4
SK-OV-3 = tested on: SK-OV-3
HOP-18 = tested on: HOP-18
Malme-3M = tested on: Malme-3M
RPMI-8226 = tested on: RPMI-8226
EKVX = tested on: EKVX
LOX IMVI = tested on: LOX IMVI
HT-29 = tested on: HT-29
UACC-257 = tested on: UACC-257
UO-31 = tested on: UO-31
OVCAR-5 = tested on: OVCAR-5
KM12 = tested on: KM12
K562 = tested on: K562
SK-MEL-5 = tested on: SK-MEL-5
TK-10 = tested on: TK-10
NCI-H226 = tested on: NCI-H226
SK-MEL-2 = tested on: SK-MEL-2

Measured: GI50

O=C(O)CSc1nnc(Cc2ccccc2)[nH]1
inactive: U-251 > 100 µM | HCC 2998 > 100 µM | DLD-1 > 100 µM | 786-0 > 100 µM | IGROV-1 > 100 µM | SN12C > 100 µM | SF-295 > 100 µM | NCI-H23 > 100 µM | SNB-78 > 100 µM | M14 > 100 µM | SF-539 > 100 µM | OVCAR-4 > 100 µM | SF-268 > 100 µM | CAKI-1 > 100 µM | DMS-114 > 100 µM | HOP-62 > 100 µM | NCI-H460 > 100 µM | UACC-62 > 100 µM | SR > 100 µM | OVCAR-3 > 100 µM | LXFL 529 > 100 µM | SK-MEL-28 > 100 µM | HCT-116 > 100 µM | RXF 393 > 100 µM | M19-MEL > 100 µM | HOP-92 > 100 µM | RXF 631 > 100 µM | HL-60 > 100 µM | NCI-H522 > 100 µM | SW-620 > 100 µM | A549 > 100 µM | XF498 15.7 µM | ACHN > 100 µM | SNB-19 > 100 µM | OVCAR-8 > 100 µM | CCRF-CEM > 100 µM | MOLT-4 > 100 µM | SK-OV-3 > 100 µM | HOP-18 > 100 µM | Malme-3M > 100 µM | RPMI-8226 > 100 µM | EKVX > 100 µM | LOX IMVI > 100 µM | HT-29 > 100 µM | UACC-257 > 100 µM | UO-31 > 100 µM | OVCAR-5 > 100 µM | KM12 > 100 µM | K562 > 100 µM | SK-MEL-5 > 100 µM | TK-10 > 100 µM | NCI-H226 > 100 µM | SK-MEL-2 > 100 µM
> 100 µM: HCT-15

— ChEMBL document CHEMBL1201862, “PubChem BioAssay data set” (2004)
